USRE50663E1, “Heterocycle derivatives as pesticides” (Bayer Aktiengesellschaft, priority 2017, dated 2025)

How the values were obtained:
Type in all cases: in vivo
[1] = tested on: adult cat fleas (Ctenocephalides felis); experiment: Ctenocephalides felis in vitro contact test with adult cat fleas; settings: application rate 5 μg/cm^2 (=500 g/ha), after 48 h, dead or moribund fleas
Protocol: (§1) For the coating of the test tubes, 9 mg of active compound are first dissolved in 1 ml of acetone p.a. and then diluted to the desired concentration with acetone p.a. 250 μl of the solution are distributed homogeneously on the inner walls and the base of a 25 ml glass tube by turning and rocking on an orbital shaker (rocking rotation at 30 rpm for 2 h). With 900 ppm of active compound solution and internal surface area 44.7 cm^2, given homogeneous distribution, an area-based dose of 5 μg/cm^2 is achieved.
After the solvent has evaporated off, the tubes are populated with 5-10 adult cat fleas (Ctenocephalides felis), sealed with a perforated plastic lid and incubated in a horizontal position at room temperature and ambient humidity. After 48 h, efficacy is determined. To this end, the tubes are stood upright and the fleas are knocked to the base of the tube. Fleas which remain motionless at the base or move in an uncoordinated manner are considered to be dead or moribund.
100% efficacy means that all the fleas were dead or moribund. 0% efficacy means that no fleas were harmed.

[2] = tested on: adult cat fleas (Ctenocephalides felis); experiment: Ctenocephalides felis oral test; settings: 48 h, 100 ppm in citrated cattle blood, after 2 days, read-out: efficacy (kill)
Summary of the method: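 Test compound in DMSO, diluted in citrated cattle blood to the test concentration and offered to ~20 unfed adults through a parafilm membrane. Kill % scored after 2 days (100% = all fleas dead, 0% = none).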

[3] = tested on: adult dog ticks (Rhipicephalus sanguineus); experiment: Rhipicephalus sanguineus in vitro contact test with adult brown dog ticks; settings: application rate 5 μg/cm^2, after 48 h, dead or moribund ticks
Protocol: as §1
After the solvent has evaporated off, the tubes are populated with 5-10 adult dog ticks (Rhipicephalus sanguineus), sealed with a perforated plastic lid and incubated in a horizontal position in the dark at room temperature and ambient humidity. After 48 h, efficacy is determined. To this end, the ticks are knocked to the base of the tube and incubated on a hotplate at 45-50° C. for not more than 5 min. Ticks which remain motionless on the base or move in such an uncoordinated manner that they are unable to deliberately avoid the heat by climbing upwards are considered to be dead or moribund.
An efficacy of 100% means that all the ticks were dead or moribund. 0% efficacy means that none of the ticks were harmed.

[4] = tested on: larvae of the mustard beetle (Phaedon cochleariae); experiment: Phaedon cochleariae spray test; settings: foliar, 168 h, 100 g/ha, after 7 days, Chinese cabbage leaf discs, read-out: efficacy
Summary of the method: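 Chinese cabbage leaf discs sprayed with compound formulated in acetone/DMF and emulsifier-containing water, then infested with mustard beetle larvae after drying. Efficacy (% larvae killed) scored after 7 days.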

[5] = tested on: larvae of the mustard beetle (Phaedon cochleariae); experiment: Comparative Phaedon cochleariae spray test (PHAECO); settings: 168 h, 7 dat, read-out: % efficacy
Protocol: (§2) Solvent: 14 parts by weight of dimethylformamide
(§3) Emulsifier: alkylaryl polyglycol ether
(§4) To produce a suitable active compound formulation, 1 part by weight of active compound is dissolved with the specified parts by weight of solvent and made up to the desired concentration with water containing an emulsifier concentration of 1000 ppm. To produce further test concentrations, the formulation is diluted with emulsifier-containing water. If the addition of ammonium salts or/and penetrants is required, these are each added in a concentration of 1000 ppm to the formulation solution.
Cabbage leaves (Brassica oleracea) are sprayed with an active ingredient formulation of the desired concentration and populated with larvae of the mustard beetle (Phaedon cochleariae).
After the desired time, the kill in % is determined. 100% means that all the beetle larvae have been killed; 0% means that no beetle larvae have been killed.

[6] = tested on: larvae of the diamondback moth (Plutella xylostella); experiment: Comparative Plutella xylostella spray test (PLUTMA); settings: 168 h, 7 dat, read-out: % efficacy
Protocol: as §2, §3, §4
Cabbage leaves (Brassica oleracea) are sprayed with an active ingredient formulation of the desired concentration and infected with larvae of the diamondback moth (Plutella xylostella).
(§5) After the desired time, the kill in % is determined. 100% means that all caterpillars have been killed; 0% means that none of the caterpillars have been killed.

[7] = tested on: caterpillars of the armyworm (Spodoptera frugiperda); experiment: Comparative Spodoptera frugiperda drench test (SPODFR D); settings: soil, 336 h, 14 dat, read-out: % efficacy
Protocol: (§6) Solvent: 7 parts by weight of dimethylformamide
(§7) Emulsifier: 2 parts by weight of alkylaryl polyglycol ether
(§8) To produce a suitable active ingredient formulation, 1 part by weight of active ingredient is mixed with the specified amounts of solvent and emulsifier, and the concentrate is diluted with water to the desired concentration, it being necessary to take into account the volume of soil which is drenched. It should be ensured that a concentration of 40 ppm of emulsifier in the soil is not exceeded. To produce further test concentrations, water is used for dilution.
Maize plants (Zea mays) in pots of soil are watered with an active ingredient formulation of the desired concentration and infected with caterpillars of the armyworm (Spodoptera frugiperda).
as §5

[8] = tested on: caterpillars of the cotton bollworm (Heliothis armigera); experiment: Comparative Heliothis armigera spray test (HELIAR); settings: Helicoverpa armigera, 168 h, 7 dat, read-out: % efficacy
Protocol: as §2, §3, §4
Cotton plants (Gossypium hirsutum) are sprayed with an active compound formulation of the desired concentration and, after drying, populated with caterpillars of the cotton bollworm (Heliothis armigera).
as §5

[9] = tested on: green peach aphid (Myzus persicae); experiment: Comparative Myzus persicae drench test (MYZUPE D); settings: soil, 240 h, 10 dat, read-out: % efficacy
Protocol: as §6, §7, §8
Savoy cabbage (Brassica oleracea) in pots with soil and infested by all stages of the green peach aphid (Myzus persicae) is watered with an active ingredient formulation of the desired concentration.
After the desired period of time, the efficacy in % is determined. 100% means that all the aphids have been killed; 0% means that no aphids have been killed.

[10] = tested on: L2 larvae of the banded cucumber beetle (Diabrotica balteata); experiment: Comparative Diabrotica balteata drench test (DIABBA D); settings: soil, 192 h, 8 dat, read-out: % efficacy
Protocol: as §6, §7, §8
In each case 5 maize corns (Zea mays) are sown into pots filled with earth, and the next day the pots are watered with the active compound preparation of the desired concentration. After one day, about 25 L2 larvae of the banded cucumber beetle (Diabrotica balteata) are added.
After 8 days, the efficacy in % is determined. 100% means that all 5 plants have germinated and grown; 0% means that none of the plants has emerged.

CCS(=O)(=O)c1c(-c2nc3cc(C(F)(F)F)cnc3n2C)nc2cc(C3(C#N)CC3)ccn12 [Example I-11, 1-{3-(Ethylsulfonyl)-2-[3-methyl-6-(trifluoromethyl)-3H-imidazo[4,5-b]pyridin-2-yl]imidazo[1,2-a]pyridin-7-yl}cyclopropanecarbonitrile]
60%: Emax at 0.8 ppm ([5]; 0.8 ppm)
95%: Emax at 0.8 ppm [9]
100%: efficacy [1] | pest or weed control at 100 ppm [2] | efficacy [3] | pest or weed control at 100 g/ha [4] | Emax at 4 ppm ([5]; 4 ppm) | Emax at 0.16 ppm [6] | Emax at 0.16 ppm [7] | Emax at 0.16 ppm [8] | Emax at 4 ppm ([10]; 4 ppm)
80%: Emax at 0.8 ppm ([10]; 0.8 ppm)
